According to PubChem BioAssay (NCI):
Values joined by “and” are separate entries in the source; they are usually repeats but may differ in a detail not shown here. Equal values may be shown once.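 Test compounds were applied to cells in 96-well plates for 48 hours at 5 doses. GI50: concentration for 50% inhibition of growth. Definition used: TGI = concentration required for complete inhibition of growth.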

Experiments:
Experiment in all cases: DTP human tumour cell line panel, 48 h
[1] = test system: 786-0 renal
[2] = test system: A498 renal
[3] = test system: A549 NSCLC
[4] = test system: ACHN renal
[5] = test system: BT-549 breast
[6] = test system: CAKI-1 renal
[7] = test system: CCRF-CEM leukemia
[8] = test system: COLO 205 colon
[9] = test system: DU-145 prostate
[10] = test system: EKVX NSCLC
[11] = test system: HCC-2998 colon
[12] = test system: HCT-116 colon
[13] = test system: HCT-15 colon
[14] = test system: HL-60(TB) leukemia
[15] = test system: HOP-62 NSCLC
[16] = test system: HOP-92 NSCLC
[17] = test system: HS 578T breast
[18] = test system: HT29 colon
[19] = test system: IGROV1 ovarian
[20] = test system: K-562 leukemia
[21] = test system: KM12 colon
[22] = test system: LOX IMVI melanoma
[23] = test system: M14 melanoma
[24] = test system: MALME-3M melanoma
[25] = test system: MCF7 breast
[26] = test system: MDA-MB-231 breast
[27] = test system: MDA-MB-435
[28] = test system: MOLT-4 leukemia
[29] = test system: NCI-H226 lung
[30] = test system: NCI-H23 lung
[31] = test system: NCI-H460 lung
[32] = test system: NCI-H522 lung
[33] = test system: NCI/ADR-RES ovarian
[34] = test system: OVCAR-3 ovarian
[35] = test system: OVCAR-4 ovarian
[36] = test system: OVCAR-5 ovarian
[37] = test system: OVCAR-8 ovarian
[38] = test system: PC-3 prostate
[39] = test system: RPMI-8226 leukemia
[40] = test system: RXF 393 renal
[41] = test system: SF-268 CNS
[42] = test system: SF-295 CNS
[43] = test system: SF-539 CNS
[44] = test system: SK-MEL-2 melanoma
[45] = test system: SK-MEL-28 melanoma
[46] = test system: SK-MEL-5 melanoma
[47] = test system: SK-OV-3 ovarian
[48] = test system: SN12C renal
[49] = test system: SNB-19 CNS
[50] = test system: SNB-75 CNS
[51] = test system: SR leukemia
[52] = test system: SW-620 colon
[53] = test system: T-47D breast
[54] = test system: TK-10 renal
[55] = test system: U251 CNS
[56] = test system: UACC-257 melanoma
[57] = test system: UACC-62 melanoma
[58] = test system: UO-31 renal

## COc1ccc(Cl)c(Nc2nc3ccccc3nc2NS(=O)(=O)c2cccc(NC(=O)C(C)(C)N)c2)c1
[1]
  GI50: 6.19 µM and 5.38 µM
  TGI: 19.8 µM and > 10 µM
[2]
  GI50: 3.1 µM and 3.23 µM
  TGI: 13.6 µM and > 10 µM
[3]
  GI50: 7.7 µM and > 10 µM
  TGI: 21.4 µM and > 10 µM
[4]
  GI50: 10.5 µM and > 10 µM
  TGI: 22.6 µM and > 10 µM
[5]
  GI50: 4.87 µM and 4.42 µM
  TGI: 18.4 µM and > 10 µM
[6]
  GI50: 6.49 µM
  TGI: > 10 µM
[7]
  GI50: 12.3 µM and > 10 µM
  TGI: 31.9 µM and > 10 µM
[8]
  GI50: 7.53 µM and 2.86 µM
  TGI: 22.3 µM and > 10 µM
[9]
  GI50: 12.1 µM and > 10 µM
  TGI: 25 µM and > 10 µM
[10]
  GI50: 6.25 µM and > 10 µM
  TGI: 21 µM and > 10 µM
[11]
  GI50: 13 µM and 5.73 µM
  TGI: 26.6 µM and > 10 µM
[12]
  GI50: 12.8 µM and > 10 µM
  TGI: 25.8 µM and > 10 µM
[13]
  GI50: 9.76 µM and 6.97 µM
  TGI: 22 µM and > 10 µM
[14]
  GI50: 5.93 µM and 2.1 µM
  TGI: 20.7 µM and > 10 µM
[15]
  GI50: 4.66 µM and > 10 µM
  TGI: 20 µM and > 10 µM
[16]
  GI50: 1.57 µM and 0.358 µM
  TGI: 9.94 µM and 5.42 µM
[17]
  GI50: 2.37 µM and 1.69 µM
  TGI: 15.1 µM and > 10 µM
[18]
  GI50: 9.87 µM and 6.23 µM
  TGI: 25.9 µM and > 10 µM
[19]
  GI50: 1.41 µM and 0.686 µM
  TGI: 6.63 µM and 4.86 µM
[20]
  GI50: 14.9 µM and > 10 µM
  TGI: 32.6 µM and > 10 µM
[21]
  GI50: 12 µM and > 10 µM
  TGI: 30.9 µM and > 10 µM
[22]
  GI50: 6.52 µM and 4.14 µM
  TGI: 20.2 µM and > 10 µM
[23]
  GI50: 12.5 µM and > 10 µM
  TGI: 29 µM and > 10 µM
[24]
  GI50: 10.2 µM and > 10 µM
  TGI: 24.9 µM and > 10 µM
[25]
  GI50: 2.66 µM and 1.9 µM
  TGI: 16.8 µM and > 10 µM
[26]
  GI50: 14.5 µM and > 10 µM
  TGI: 32.6 µM and > 10 µM
[27]
  GI50: 11.5 µM and > 10 µM
  TGI: 25.2 µM and > 10 µM
[28]
  GI50: 3.5 µM and 3.66 µM
  TGI: 17.4 µM and > 10 µM
[29]
  GI50: 15.3 µM and > 10 µM
  TGI: 40.2 µM and > 10 µM
[30]
  GI50: 13.2 µM and > 10 µM
  TGI: 29.1 µM and > 10 µM
[31]
  GI50: 6.51 µM and 4.52 µM
  TGI: 20.8 µM and > 10 µM
[32]
  GI50: 14.7 µM and > 10 µM
  TGI: 30.5 µM and > 10 µM
[33]
  GI50: 12.1 µM and > 10 µM
  TGI: 32.3 µM and > 10 µM
[34]
  GI50: 7.68 µM and 4.12 µM
  TGI: 21.3 µM and > 10 µM
[35]
  GI50: 14.8 µM and > 10 µM
  TGI: 28.3 µM and > 10 µM
[36]
  GI50: 4.76 µM and > 10 µM
  TGI: 22.5 µM and > 10 µM
[37]
  GI50: 14 µM and > 10 µM
  TGI: 32.8 µM and > 10 µM
[38]
  GI50: 3.42 µM and 2.65 µM
  TGI: 17.5 µM and > 10 µM
[39]
  GI50: 13.4 µM and > 10 µM
  TGI: 52.8 µM and > 10 µM
[40]
  GI50: 1.89 µM and 2.62 µM
  TGI: 9.03 µM and > 10 µM
[41]
  GI50: 10.9 µM and 9.94 µM
  TGI: 25.5 µM and > 10 µM
[42]
  GI50: 4.7 µM and 2.56 µM
  TGI: 18.8 µM and > 10 µM
[43]
  GI50: 7.35 µM and 4.42 µM
  TGI: 20.4 µM and > 10 µM
[44]
  GI50: 14.9 µM and > 10 µM
  TGI: 32.1 µM and > 10 µM
[45]
  GI50: 7.93 µM and > 10 µM
  TGI: 22.2 µM and > 10 µM
[46]
  GI50: 12.1 µM and > 10 µM
  TGI: 24.6 µM and > 10 µM
[47]
  GI50: 5 µM and 1.89 µM
  TGI: 18.6 µM and > 10 µM
[48]
  GI50: 9.79 µM and > 10 µM
  TGI: 22.3 µM and > 10 µM
[49]
  GI50: 12.4 µM and > 10 µM
  TGI: 25.9 µM and > 10 µM
[50]
  GI50: 1.35 µM and 0.481 µM
  TGI: 10 µM and 6.6 µM
[51]
  GI50: 10.2 µM and > 10 µM
  TGI: 28.1 µM and > 10 µM
[52]
  GI50: 11.6 µM and > 10 µM
  TGI: 26.2 µM and > 10 µM
[53]
  GI50: 0.443 µM and 0.638 µM
  TGI: 5.05 µM and 5.77 µM
[54]
  GI50: 5.68 µM and 4.24 µM
  TGI: 20.1 µM and > 10 µM
[55]
  GI50: 11 µM and > 10 µM
  TGI: 24.1 µM and > 10 µM
[56]
  GI50: 12.1 µM and > 10 µM
  TGI: 25.1 µM and > 10 µM
[57]
  GI50: 13 µM
  TGI: 26.6 µM
[58]
  GI50: 1.9 µM and 2.03 µM
  TGI: 13.5 µM and > 10 µM
